Results from patent US10941121B2 (AZIENDA OSPEDALIERA UNIVERSITARIA SENESE, priority 2015, dated 2021).
Read-outs that look alike come from different tables or passages of the source.

How the values were obtained:
[1] = test system: Hepatitis C Virus (HCV) replicon system; experiment: HCV replicon system, luciferase method in LucUbiNeo-ET cells; conditions: for EC50: Hepatitis C virus, 48 h, read-out: EC50 (μM) HCV replicon system
[2] = Cytotoxicity, MTT method in LUNET cells; assay type: cell-based; conditions: human; MMT method in LUNET cells; read-out: CC50 (μM) non-infected cells
Procedure: Toxicity (CC50) was analysed in the Lunet/HuH7 cells by the addition of 10 μL of MTT (3-(4,5-dimethylthiazol-2-yl)-2,5-diphenyltetrazolium bromide) per well. After 4 h of incubation at 37° C. in a humidified atmosphere with 5% CO2, the amount of formazan produced was quantified spectrophotometrically at 550/620 nm (C. Pannecouque et al, Nature protocol 2008; 3 (3): 427-434). […] These assays were done in duplicate.

[3] = molecular target: T1, DDX3 Helicase (Homo sapiens, UniProt O00571); experiment: biochemical
[4] = molecular target: T1, DDX3 Helicase; conditions: for IC50: read-out: ID50 (μM) against DDX3 Helicase, n.a. = compound not active; for DDX3 helicase activity compared with EI01D: in words
[5] = Parallel Artificial Membrane Permeability Assay (PAMPA); assay type: in vitro ADME; conditions: for Papp at 5 h, 0.5 mM: PAMPA, phosphatidylcholine in dodecane, pH 7.4, 5 h, room temperature, read-out: PAMPA Papp *10^−6 (cm/s) GI; for PAMPA membrane retention (RM %): value in brackets in the PAMPA cell
Procedure: Parallel Artificial Membrane Permeability Assay (PAMPA). Donor solution (0.5 mM) was prepared by diluting 1 mM dimethylsulfoxide (DMSO) compound stock solution using phosphate buffer (pH 7.4, 0.025 M). Filters were coated with 5 μL of a 1% (w/v) dodecane solution of phosphatidylcholine prepared from CHCl3 solution 10% w/v, for intestinal permeability. Donor solution (150 μL) was added to each well of the filter plate. To each well of the acceptor plate were added […] (50% DMSO in phosphate buffer). All compounds were tested in three different plates on different days. The sandwich was incubated for 5 h at room temperature under gentle shaking. After the incubation time, the plates were separated, and samples were taken from both receiver and donor sides and analyzed using LC with UV detection at 280 nm.
LC analysis were performed with a Varian Prostar HPLC system (Varian Analytical Instruments, USA) equipped with a binary pump with a manual injection valve and model Prostar 325 UV-VIS Detector.
Permeability (Papp) for PAMPA was calculated according to the following equation, obtained from Wohnsland and Faller and Sugano et al. equation with some modification in order to obtain permeability values in cm s^−1,
where VA is the volume in the acceptor well, VD is the volume in the donor well (cm^3), A is the “effective area” of the membrane (cm^2), t is the incubation time (s) and r the ratio between drug concentration in the acceptor and equilibrium concentration of the drug in the total volume (VD+VA). Drug concentration is estimated by using the peak area integration.
Membrane retentions (%) were calculated according to the following equation: […]
where r is the ratio between drug concentration in the acceptor and equilibrium concentration, D, A, and Eq represented drug concentration in the donor, acceptor and equilibrium solution, respectively.

[6] = Water Solubility Assay; assay type: physicochemical; conditions: thermodynamic from solid
Procedure: Water Solubility Assay. Each solid compound (1 mg) was added to 1 mL of water. The samples were shaked in a shaker bath at room temperature for 24-36 h. The suspensions were filtered through a 0.45 μm nylon filter (Acrodisc), and the solubilized compound determined by LC-MS-MS assay. For each compound the determination was performed in triplicate.
For the quantification was used an LC-MS system consisted of a Varian apparatus (Varian Inc) including a vacuum solvent degassing unit, two pumps (212-LC), a Triple Quadrupole MSD (Mod. 320-LC) mass spectrometer with ES interface and Varian MS Workstation System Control Vers. 6.9 software. […] The flow rate was 0.2 mL min^−1 and injection volume was 5 μL. The instrument operated in positive mode and parameters were: detector 1850 V, drying gas pressure 25.0 psi, desolvation temperature 300.0° C., nebulizing gas 40.0 psi, needle 5000 V and shield 600 V. Nitrogen was used as nebulizer gas and drying gas. Collision induced dissociation was performed using Argon as the collision gas at a pressure of 1.8 mTorr in the collision cell.

[7] = experimental aqueous solubility, read-out: LogS (converted)
[8] = room temperature, 24-36 h, read-out: Aq. Solub.

T1 sequence (O00571 whole entry): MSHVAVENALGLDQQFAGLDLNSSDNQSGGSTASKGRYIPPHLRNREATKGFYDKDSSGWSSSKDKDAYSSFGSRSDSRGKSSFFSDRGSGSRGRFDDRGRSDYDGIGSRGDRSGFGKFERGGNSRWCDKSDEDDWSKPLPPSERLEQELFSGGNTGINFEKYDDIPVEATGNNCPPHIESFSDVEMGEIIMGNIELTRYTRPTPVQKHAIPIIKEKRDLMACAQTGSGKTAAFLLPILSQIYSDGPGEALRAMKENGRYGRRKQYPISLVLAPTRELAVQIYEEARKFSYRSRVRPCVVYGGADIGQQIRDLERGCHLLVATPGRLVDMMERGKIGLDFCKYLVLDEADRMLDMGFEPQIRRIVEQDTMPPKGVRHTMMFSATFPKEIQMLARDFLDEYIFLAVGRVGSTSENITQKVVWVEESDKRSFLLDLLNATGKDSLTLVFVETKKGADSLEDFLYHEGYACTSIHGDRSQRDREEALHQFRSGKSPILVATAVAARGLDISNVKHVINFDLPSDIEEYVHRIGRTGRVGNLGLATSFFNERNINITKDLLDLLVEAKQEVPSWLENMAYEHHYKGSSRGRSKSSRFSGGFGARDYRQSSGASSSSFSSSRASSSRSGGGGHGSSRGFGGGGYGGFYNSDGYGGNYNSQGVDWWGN

Row | SMILES | EC50 [1] | CC50 [2] | IC50 [3] | other results
1 | Cc1ccccc1NC(=O)Nc1ccc(-n2cc(C(C)(C)C)nn2)cc1 [Compound 8b, 1-(4-(4-tert-butyl-1H-1,2,3-triazol-1-yl)phenyl)-3-o-tolylurea] | 5.73 µM | 100 µM | 3.36 µM | 
2 | Cc1ccccc1NC(=O)Nc1ccc(-n2cc(CN(C)Cc3ccccc3)nn2)cc1 [Compound 8c, 1-(4-(4-methanamine,N-[(phenyl)methyl]-N-methyl-1H-1,2,3-triazol-1yl)phenyl)-3-o-tolylurea] |  |  | 22.8 µM | 
3 | Cc1cn(-c2ccc(NC(=O)Nc3ccccc3C)cc2)nn1 [Compound 8f, 1-(4-(4-methyl-1H-1,2,3-triazol-1-yl)phenyl)-3-o-tolylurea] | > 36 µM | 36 µM |  | 
4 | CCc1cn(-c2ccc(NC(=O)Nc3ccccc3C)cc2)nn1 [Compound 8g, 1-(4-(4-ethyl-1H-1,2,3-triazol-1-yl)phenyl)-3-o-tolylurea] | 36 µM | 295 µM | 0.98 µM | 
5 | CCCCc1cn(-c2ccc(NC(=O)Nc3cnccc3C)cc2)nn1 [Compound 15a, 1-(4-(4-butyl-1H-1,2,3-triazol-1-yl)phenyl)-3-(4-methylpyridin-3-yl)urea] |  |  | 1.47 µM | 
6 | Cc1ccncc1NC(=O)Nc1ccc(-n2cc(CCC(C)C)nn2)cc1 [Compound 15b, 1-(4-(4-isopentyl-1H-1,2,3-triazol-1-yl)phenyl)-3-(4-methylpyridin-3-yl)urea] | 3.65 µM | 180 µM | 2 µM | 
7 | Cc1ccccc1NC(=O)Nc1ccc(-n2cc(C(F)(F)C(F)(F)C(F)(F)C(F)(F)F)nn2)cc1 [Compound 20c] | > 125 µM | > 125 µM |  | IC50 [4]: 6 µM
8 | COCCc1cn(-c2ccc(NC(=O)Nc3ccccc3C)cc2)nn1 [Compound 20f, 1-(4-(4-(2-methoxyethyl)-1H-1,2,3-triazol-1-yl)phenyl)-3-o-tolylurea] | 28.8 µM | 44.4 µM |  | Papp at 5 h, 0.5 mM [5]: 0.69 ×10⁻⁶ cm/s; PAMPA membrane retention (RM %) [5]: 7.4%; IC50 [4]: 1 µM; solubility [6, 7]: 50.1 µM; solubility [6, 8]: 26300 ng/mL
9 | Cc1c(Cl)cccc1NC(=O)Nc1ccc(-n2cc(CCC(C)C)nn2)cc1 [Compound 21b, 1-(3-chloro-2-methylphenyl)-3-(4-(4-isopentyl-1H-1,2,3-triazol-1-yl)phenyl)urea] | 6.11 µM | 42.1 µM |  | Papp at 5 h, 0.5 mM [5]: 2.51 ×10⁻⁶ cm/s; PAMPA membrane retention (RM %) [5]: 59.1%; solubility [6, 7]: < 0.00251 µM; solubility [6, 8]: < 1 ng/mL
10 | CC(C)CCc1cn(-c2ccc(NC(=O)Nc3ccccc3C(F)(F)F)cc2)nn1 [Compound 22b, 1-(4-(4-isopentyl-1H-1,2,3-triazol-1-yl)phenyl)-3-(2-(trifluoromethyl)phenyl)urea] | 0.67 µM | 46.8 µM | 0.17 µM | Papp at 5 h, 0.5 mM [5]: 7.41 ×10⁻⁶ cm/s; PAMPA membrane retention (RM %) [5]: 24.8%; DDX3 helicase activity compared with EI01D [4]: approximately ten-fold more active; activity against HCV, in words [1]: best activity; solubility [6, 7]: < 0.00251 µM; solubility [6, 8]: 2 ng/mL
11 | Cc1ccccc1NC(=O)Nc1ccc(-n2cc(CO)nn2)cc1 [Compound 35a, 1-(4-(4-(hydroxymethyl)-1H-1,2,3-triazol-1-yl)phenyl)-3-o-tolylurea] |  |  | 17.5 µM | 
12 | Cc1ccccc1NC(=O)Nc1ccc(-n2cc(CCO)nn2)cc1 [Compound 35b, 1-(4-(4-(hydroxyethyl)-1H-1,2,3-triazol-1-yl)phenyl)-3-o-tolylurea] | 28.9 µM | > 370 µM | 20 µM | 
13 | Cc1ccccc1NC(=O)Nc1ccc(-n2cc(CN3CCOCC3)nn2)cc1 [Compound 35e, 1-(4-(4-(morpholinomethyl)-1H-1,2,3-triazol-1-yl)phenyl)-3-o-tolylurea] | > 125 µM | > 125 µM |  | 
14 | Cc1ccccc1NC(=O)Nc1ccc(-n2cc(CCN3CCOCC3)nn2)cc1 [Compound 35f, 1-(4-(4-(morpholinoethyl)-1H-1,2,3-triazol-1-yl)phenyl)-3-o-tolylurea] | > 125 µM | > 125 µM |  | 
15 | Cc1ccccc1NC(=O)Nc1ccc(-n2cc(CCCN(C)C)nn2)cc1 [Compound 35i, 1-(4-(4-(dimethylaminopropyl)-1H-1,2,3-triazol-1-yl)phenyl)-3-o-tolylurea] |  |  |  | IC50 [4]: 2.9 µM
16 | Cc1ccccc1NC(=O)Nc1ccc(-n2cc(CCOC(=O)CC(C)C)nn2)cc1 [Compound 37, 2-(1-(4-(3-(o-tolyl)ureido)phenyl)-1H-1,2,3-triazol-4-yl)ethyl 3-methylbutanoate] | 11.7 µM | 180 µM |  | IC50 [4]: 1.3 µM
17 | CC(C)CC(=O)OCCc1cn(-c2ccc(NC(=O)Nc3ccccc3C(F)(F)F)cc2)nn1 [Compound 38, 2-(1-(4-(3-(2-(trifluoromethyl)phenyl)ureido)phenyl)-1H-1,2,3-triazol-4-yl)ethyl 3-methylbutanoate] | 0.5 µM | 23.2 µM |  | IC50 [4]: 0.4 µM
18 | O=C(Nc1ccc(-n2cc(CCOC(=O)/C=C/c3ccc4c(c3)OCO4)nn2)cc1)Nc1ccccc1C(F)(F)F [Compound 39, 2-(1-(4-(3-(2-(trifluoromethyl)phenyl)ureido)phenyl)-1H-1,2,3-triazol-4-yl)ethyl 3-(benzo[d][1,3]dioxol-5-yl)acrylate] | 4.3 µM | 28.6 µM |  | IC50 [4]: 5.1 µM
19 | CCCC(C)C(F)c1cn(-c2ccc(NC(=O)Nc3ccccc3C(F)(F)F)cc2)nn1 (centres unmarked) [Compound 42c, 1-(4-(4-(1-fluoro-2-methylpentyl)-1H-1,2,3-triazol-1-yl)phenyl)-3-(2-(trifluoromethyl)phenyl) urea] |  |  | 0.3 µM | 
20 | CCOCn1nnc(-c2ccc(NC(=O)Nc3ccccc3C)cc2)n1 [Compound 50, 1-(4-(2-(ethoxymethyl)-2H-tetrazol-5-yl)phenyl)-3-(o-tolyl)urea] | 22.8 µM | 245 µM | 14 µM | 
21 | CCCCn1nnc(-c2ccc(NC(=O)Nc3cnccc3C)cc2)n1 [Compound 52, 1-(4-(2-butyl-2H-tetrazol-5-yl)phenyl)-3-(4-methylpyridin-3-yl)urea] |  |  | 2.49 µM | 
22 | CC(C)CCc1cn(-c2ccc(NC(=O)Nc3ccccc3F)cc2)nn1 [Compound 55a, 1-(2-fluorophenyl)-3-(4-(4-isopentyl-1H-1,2,3-triazol-1-yl)phenyl)urea] | 0.4 µM | > 340 µM |  | DDX3 helicase activity compared with EI01D [4]: approximately ten-fold more active; IC50 [4]: 0.12 µM; activity against HCV, in words [1]: best activity
23 | Cc1nc(Cl)c2ccccc2c1NC(=O)Nc1ccc(-n2cc(CCC(C)C)nn2)cc1 [Compound 55g, 1-(1-chloro-3-methylisoquinolin-4-yl)-3-(4-(4-isopentyl-1H-1,2,3-triazol-1-yl)phenyl)urea] | 12.4 µM | > 278 µM | 10 µM | 
24 | CCCCc1cn(-c2cccc(S(=O)(=O)Nc3ccc(OC)cc3)c2)nn1 [Compound 64b, 3-(4-butyl-1H-1,2,3-triazol-1-yl)-N-(4-methoxyphenyl)benzenesulfonamide] |  |  | 52.2 µM | 
25 | CCCCc1cn(-c2ccc(S(=O)(=O)Nc3ccccc3O)cc2)nn1 [Compound 65a, 4-(4-butyl-1H-1,2,3-triazol-1-yl)-N-(2-hydroxyphenyl)benzenesulfonamide] |  |  | 15.5 µM | 
